# Data as given in PMC3439875 (Nucleic Acids Research, 2012).
# Molecular target: variola topoisomerase (Variola virus, UniProt P32989)
# Format: biochemical
# Chain of variola topoisomerase (P32989 whole entry, looked up): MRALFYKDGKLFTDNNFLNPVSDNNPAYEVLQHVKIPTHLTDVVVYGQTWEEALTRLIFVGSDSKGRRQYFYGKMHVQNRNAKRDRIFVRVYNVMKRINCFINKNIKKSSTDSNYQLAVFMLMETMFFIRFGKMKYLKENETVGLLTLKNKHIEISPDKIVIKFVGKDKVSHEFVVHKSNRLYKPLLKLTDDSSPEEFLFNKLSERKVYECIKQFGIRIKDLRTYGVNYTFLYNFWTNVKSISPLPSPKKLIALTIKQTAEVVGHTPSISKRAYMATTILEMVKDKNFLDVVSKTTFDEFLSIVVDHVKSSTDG
compound,measurement,value
CCOC(=O)c1c(O)c2cc(-c3cccc(OC)n3)cnc2n(O)c1=O [Compound 7],Inhibition of variola topoisomerase activity,no inhibitory activity
